Structures are written as SMILES.

The target of assay [1] is T1, Human ACC2 (amino acids 1685-2458) (Homo sapiens, UniProt O00763).
T1 construct: Human ACC2 (amino acids 1685-2458); 6His (N, cleaved yes); FLAG (N, cleaved yes); TEV cleavage site (N, cleaved yes); made in house; host or cells: Sf9 insect cells (baculovirus)
Kind of assay: ThermoFluor measurement of compound binding to ACC2 CT domain. As to conditions: carboxyterminus (CT) domain, pH 7.0, read-out: ACC2 TF Kd. How it is done:
(§1) The 6His.FLAG.TEV Human ACC2 (amino acids 1685-2458) (Egea Biosciences, San Diego, Calif.) and 6His.FLAG. TEV. Human ACC1 (amino acids 1603-2383) (Egea Biosciences, San Diego, Calif.) genes were synthesized and subcloned into the pENTR11 vector. Transfection-grade DNA was purified using the QIAwell® Kit from Qiagen. The LR reaction was performed overnight and then transfected into Sf9 cells using a BaculoDirect® Baculovirus Expression System (Invitrogen). The P0 virus was collected 4 days post transfection and used for another round of virus amplification. The resulting P1 virus and cells were collected 3 days post-infection. […]
(§2) On-column cleavage of the histidine tag was performed by injecting 96 ug of TEV S219V protease/mg (of ACC2 CT. The product was incubated at 4° C. for 20 hours. The cleaved ACC2 was eluted in buffer A and loaded directly onto a HiLoad® 16/60 Superdex 200 column (GE Healthcare), preequilibrated with 25 mM Tris Buffer (at pH 8.0, 200 mM NaCl, 5% Glycerol, 5 mM DTT). Fractions containing ACC2 CT, assayed by SDS-PAGE, were pooled. For cocrystallization, the compound was added in a 1:2 molar ratio of protein:compound and incubated overnight at 4° C. The complex was concentrated to a final protein concentration of 7 mg/mL using an 30 kDa cut-off Ultrafree® membrane (Millipore, Billerica, Mass.) and was then ready for crystallization. […]
Background: DSF heats the sample and reads unfolding from a dye or from intrinsic fluorescence.

For assay [2], the system named is ApoB secretion from HepG2 cells. The experiment in a line: ApoB secretion from HepG2 cells. Particulars: Homo sapiens, 24 hours, ApoB in medium by ELISA. In kind it is cell-based. As for the experimental part:
HepG2 cells (American Type Culture Collection: Catalog No. #HB-8065) are maintained in Growth Media consisting of DMEM with 4.5 g/L glucose (Cellgro: Catalog No. #10-013-CV), supplemented with 10% fetal bovine serum (FBS) (Cellgro: Catalog No. #35-011-CV) and 100 U/mL each penicillin and streptomycin (Cellgro: Catalog No. #30-002-Cl). For the assay, cells are plated @ ˜10,000 cells/well in white, clear-bottom, 96-well plates (Costar: Catalog No. #3610) and incubated in a humidified 5% CO2 atmosphere at 37° C. The next day, Growth Media is replaced with RPMI 1640 without glucose (Cellgro: Catalog No. #10-043-CV), supplemented with 10% charcoal/dextran treated FBS (Hyclone: Catalog No. #SH30068.02) and 100 U/mL each penicillin and streptomycin (starvation media). The cells are maintained overnight in a humidified 5% CO2 atmosphere at 37° C. […] Twenty-four hours later, the growth medium is collected and assessed for ApoB content. […]
The samples are removed and the plate is washed again 3× with 200 μL PBST, then 100 μL of 1/10,000 HRP-conjugated, affinity-purified polyclonal sheep anti-human ApoB detection antibody (BioDesign International Product No. # K90086P) is added to each well and the plate is incubated for one hour at 37° C. […] The plate is read for one second in an Orion Microplate Luminometer®. […]
On the technique in general: An ELISA detects its analyte on a solid surface through an enzyme-linked reagent.

In assay [3] the target is T2, Human ACC1 (amino acids 1603-2383) (Homo sapiens, UniProt Q13085).
T2 construct: Human ACC1 (amino acids 1603-2383); 6His (N); FLAG (N); TEV cleavage site (N); made in house; host or cells: Sf9 insect cells (baculovirus)
The experiment in a line: ThermoFluor measurement of compound binding to ACC1 CT domain. Particulars: carboxyterminus (CT) domain, pH 7.0, read-out: ACC1 TF Kd. As for the experimental part: as §1, §2

T1 sequence (O00763 1685-2458): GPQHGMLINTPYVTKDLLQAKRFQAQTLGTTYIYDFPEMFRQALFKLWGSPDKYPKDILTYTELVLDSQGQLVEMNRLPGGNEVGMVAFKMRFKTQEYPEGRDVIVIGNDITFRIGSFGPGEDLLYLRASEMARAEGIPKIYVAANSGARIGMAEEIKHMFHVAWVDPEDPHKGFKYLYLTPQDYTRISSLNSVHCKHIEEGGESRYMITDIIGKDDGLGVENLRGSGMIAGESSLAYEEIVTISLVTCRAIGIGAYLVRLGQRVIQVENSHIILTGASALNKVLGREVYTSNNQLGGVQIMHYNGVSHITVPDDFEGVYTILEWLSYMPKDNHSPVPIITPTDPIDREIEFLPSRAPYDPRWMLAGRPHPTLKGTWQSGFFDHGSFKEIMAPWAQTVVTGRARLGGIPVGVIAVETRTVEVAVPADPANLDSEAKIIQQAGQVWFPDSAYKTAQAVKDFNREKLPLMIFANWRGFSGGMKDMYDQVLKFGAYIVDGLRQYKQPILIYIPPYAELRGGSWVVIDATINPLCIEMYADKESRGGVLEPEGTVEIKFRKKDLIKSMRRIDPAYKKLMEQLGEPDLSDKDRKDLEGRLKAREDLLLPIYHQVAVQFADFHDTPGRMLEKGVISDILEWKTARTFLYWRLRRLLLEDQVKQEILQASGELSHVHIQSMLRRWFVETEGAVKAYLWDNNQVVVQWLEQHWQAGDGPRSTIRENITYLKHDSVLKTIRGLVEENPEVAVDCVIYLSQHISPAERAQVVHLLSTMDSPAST

`Cc1ccc2nc(-c3ccncc3)cc(C(=O)N3CCN(Cc4ccc5c(c4)OCCO5)CC3)c2c1` [Cpd 1, [4-(2,3-Dihydro-benzo[1,4]dioxin-6-ylmethyl)-piperazin-1-yl]-(6-methyl-2-pyridin-4-yl-quinolin-4-yl)methanone]: the figures for the Kd in assay [1] and in assay [3] were 0.4 µM and 0.97 µM, respectively. Moreover, the IC50 in assay [2] is 8 µM.

Broadly, the Kd is the constant that tells how readily two partners part at equilibrium. One may read the IC50 as the point on the concentration scale where inhibition reaches its midpoint. Higher therefore signals weaker potency in that assay.

These data come from patent US20100113473A1, “ARYL AMIDE COMPOUND AS AN ACETYL COENZYME A CARBOXYLASE INHIBITOR” (priority 2008, published 2010).
